Assay results reported in patent US11827596B2, “Thyromimetics” (Autobahn Therapeutics, Inc., priority 2018, dated 2023).
pEC50: −log10 of the molar value.

molecular target: T1, TRα (Homo sapiens, UniProt P10827); experiment: Thyroid-hormone reporter-gene assay (Gal4-TR hybrid, luciferase), TRα; assay type: cell-based; conditions: HEK293-derived reporter cells, 24 hr incubation
T1 construct: The firefly luciferase reporter under the Gal4 UAS is a separate reporter gene
T1 sequence (P10827 163-410 isoform P10827-2 limits assumed): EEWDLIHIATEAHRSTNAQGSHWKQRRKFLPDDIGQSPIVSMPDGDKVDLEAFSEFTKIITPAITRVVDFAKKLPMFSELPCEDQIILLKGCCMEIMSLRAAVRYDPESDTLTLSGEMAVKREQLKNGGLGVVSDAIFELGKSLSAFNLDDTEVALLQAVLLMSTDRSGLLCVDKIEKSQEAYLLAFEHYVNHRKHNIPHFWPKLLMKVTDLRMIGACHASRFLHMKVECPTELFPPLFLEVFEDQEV
Method: (§1) Reporter cells used in the assays express a TR-receptor hybrid (either TRα or […]) in which the native N-terminal DNA binding domain (DBD) has been replaced with that of the yeast Gal4 DBD. The reporter gene, firefly luciferase, is functionally linked to the Gal4 upstream activation sequence (UAS). Both cell lines were derived from human embryonic kidney (HEK293).
(§2) Step 1: A suspension of reporter cells was prepared in cell recovery medium containing 10% charcoal-stripped FBS, and dispensed into assay plates. The plates were pre-incubated for 6 hours in a cell culture incubator (37° C./5% CO2/85% humidity).
(§3) These Intermediate Stocks were subsequently diluted directly into compound screening medium containing 10% charcoal-stripped FBS to generate “2×-concentration” treatment media (containing 0.2, 0.4 or 0.8% DMSO).
(§4) Step 3: At the end of the pre-incubation period, culture media were discarded from the assay plates, and all wells received 100 μl of compound screening medium. 100 μl of each of the previously prepared “2×-concentration” treatment media were dispensed into duplicate assay wells, thereby achieving the desired final treatment concentrations. The final concentration of DMSO in all assay wells was 0.1, 0.2 or 0.4%. Assay plates were incubated for 24 hr in a cell culture incubator (37° C./5% CO2/85% humidity).
(§5) Step 4: At the 24 h assay endpoint, treatment media were discarded and 100 μl/well of luciferase detection reagent was added. Relative luminometer units (RLUs) were quantified from each assay well.

Structure (SMILES) | pEC50
Cc1cc(OCC(=O)O)cc(Cl)c1Cc1ccc(O)c(C(C)C)c1 [Compound 2, 2-(3-chloro-4-(4-hydroxy-3-isopropylbenzyl)-5-methylphenoxy)acetic acid] | 6.00 to 7.00
Cc1cc(OCC(=O)O)cc(Br)c1Cc1ccc(O)c(C(C)C)c1 [Compound 5, 2-(3-bromo-4-(4-hydroxy-3-isopropylbenzyl)-5-methylphenoxy)acetic acid] | 7.00 to 8.00
CCc1cc(OCC(=O)O)cc(Cl)c1Cc1ccc(O)c(C(C)C)c1 [Compound 8, 2-(3-chloro-5-ethyl-4-(4-hydroxy-3-isopropylbenzyl)phenoxy)acetic acid] | 6.00 to 7.00
Cc1cc(OCC(=O)O)cc(C(F)(F)F)c1Cc1ccc(O)c(C(C)C)c1 [Compound 11, 2-(4-(4-hydroxy-3-isopropylbenzyl)-3-methyl-5-(trifluoromethyl)phenoxy)acetic acid] | 6.00 to 7.00
CCc1cc(OCC(=O)O)cc(C)c1Cc1ccc(O)c(C(C)C)c1 [Compound 16, 2-(3-ethyl-4-(4-hydroxy-3-isopropylbenzyl)-5-methylphenoxy)acetic acid] | 6.00 to 7.00
CC(C)c1cc(Cc2c(Cl)cc(OCC(=O)O)cc2C(F)(F)F)ccc1O [Compound 18, 2-(3-chloro-4-(4-hydroxy-3-isopropylbenzyl)-5-(trifluoromethyl)phenoxy)acetic acid] | 7.00 to 8.00
C=C(C)c1cc(OCC(=O)O)cc(C)c1Cc1ccc(O)c(C(C)C)c1 [Compound 20, 2-(4-(4-hydroxy-3-isopropylbenzyl)-3-methyl-5-(prop-1-en-2-yl)phenoxy)acetic acid] | 6.00 to 7.00
Cc1cc(OCC(=O)O)cc(C(C)C)c1Cc1ccc(O)c(C(C)C)c1 [Compound 21, 2-(4-(4-hydroxy-3-isopropylbenzyl)-3-isopropyl-5-methylphenoxy)acetic acid] | 7.00 to 8.00
C/C=C/c1cc(OCC(=O)O)cc(C)c1Cc1ccc(O)c(C(C)C)c1 [Compound 23, (E)-2-(4-(4-hydroxy-3-isopropylbenzyl)-3-methyl-5-(prop-1-enyl)phenoxy)acetic acid] | < 6.00
CCCc1cc(OCC(=O)O)cc(C)c1Cc1ccc(O)c(C(C)C)c1 [Compound 25, 2-(4-(4-hydroxy-3-isopropylbenzyl)-3-methyl-5-propylphenoxy)acetic acid] | 6.00 to 7.00
Cc1cc(OCC(=O)O)cc(C2CC2)c1Cc1ccc(O)c(C(C)C)c1 [Compound 27, 2-(3-cyclopropyl-4-(4-hydroxy-3-isopropylbenzyl)-5-methylphenoxy)acetic acid] | < 6.00
C=C(C)c1cc(OCC(=O)O)cc(Cl)c1Cc1ccc(O)c(C(C)C)c1 [Compound 30, 2-(3-chloro-4-(4-hydroxy-3-isopropylbenzyl)-5-(prop-1-en-2-yl)phenoxy)acetic acid] | 6.00 to 7.00
CC(C)c1cc(Cc2c(Cl)cc(OCC(=O)O)cc2C(C)C)ccc1O [Compound 31, 2-(3-chloro-4-(4-hydroxy-3-isopropylbenzyl)-5-isopropylphenoxy)acetic acid] | 7.00 to 8.00

molecular target: T2, TRβ (Homo sapiens, UniProt P10828); experiment: Thyroid-hormone reporter-gene assay (Gal4-TR hybrid, luciferase), TRβ; assay type: cell-based; conditions: EC50 (TRα)*T3-EC50 (TRβ)/EC50 (TRβ)*T3-EC50 (TRα), T3 in the same experiment
T2 construct: expressed in transfected cells; host or cells: HEK293-derived reporter cells
T2 sequence (P10828 217-461 limits assumed): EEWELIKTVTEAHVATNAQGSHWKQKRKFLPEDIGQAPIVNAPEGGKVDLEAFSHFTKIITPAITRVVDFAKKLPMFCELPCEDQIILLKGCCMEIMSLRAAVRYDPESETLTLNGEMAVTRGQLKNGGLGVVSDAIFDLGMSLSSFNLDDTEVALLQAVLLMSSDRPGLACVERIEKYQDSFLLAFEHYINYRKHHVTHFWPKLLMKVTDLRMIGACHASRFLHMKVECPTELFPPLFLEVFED
Method: as §1, §2, §3, §4, §5

Structure (SMILES) | T3-benchmarked selectivity index (T3-SI)
Cc1cc(OCC(=O)O)cc(Cl)c1Cc1ccc(O)c(C(C)C)c1 [Compound 2, 2-(3-chloro-4-(4-hydroxy-3-isopropylbenzyl)-5-methylphenoxy)acetic acid] | ++ (3×<T3-SI≤30×)
Cc1cc(OCC(=O)O)cc(Br)c1Cc1ccc(O)c(C(C)C)c1 [Compound 5, 2-(3-bromo-4-(4-hydroxy-3-isopropylbenzyl)-5-methylphenoxy)acetic acid] | ++ (3×<T3-SI≤30×)
CCc1cc(OCC(=O)O)cc(Cl)c1Cc1ccc(O)c(C(C)C)c1 [Compound 8, 2-(3-chloro-5-ethyl-4-(4-hydroxy-3-isopropylbenzyl)phenoxy)acetic acid] | ++ (3×<T3-SI≤30×)
Cc1cc(OCC(=O)O)cc(C(F)(F)F)c1Cc1ccc(O)c(C(C)C)c1 [Compound 11, 2-(4-(4-hydroxy-3-isopropylbenzyl)-3-methyl-5-(trifluoromethyl)phenoxy)acetic acid] | ++ (3×<T3-SI≤30×)
CCc1cc(OCC(=O)O)cc(C)c1Cc1ccc(O)c(C(C)C)c1 [Compound 16, 2-(3-ethyl-4-(4-hydroxy-3-isopropylbenzyl)-5-methylphenoxy)acetic acid] | ++ (3×<T3-SI≤30×)
CC(C)c1cc(Cc2c(Cl)cc(OCC(=O)O)cc2C(F)(F)F)ccc1O [Compound 18, 2-(3-chloro-4-(4-hydroxy-3-isopropylbenzyl)-5-(trifluoromethyl)phenoxy)acetic acid] | ++ (3×<T3-SI≤30×)
C=C(C)c1cc(OCC(=O)O)cc(C)c1Cc1ccc(O)c(C(C)C)c1 [Compound 20, 2-(4-(4-hydroxy-3-isopropylbenzyl)-3-methyl-5-(prop-1-en-2-yl)phenoxy)acetic acid] | ++ (3×<T3-SI≤30×)
Cc1cc(OCC(=O)O)cc(C(C)C)c1Cc1ccc(O)c(C(C)C)c1 [Compound 21, 2-(4-(4-hydroxy-3-isopropylbenzyl)-3-isopropyl-5-methylphenoxy)acetic acid] | ++ (3×<T3-SI≤30×)
C/C=C/c1cc(OCC(=O)O)cc(C)c1Cc1ccc(O)c(C(C)C)c1 [Compound 23, (E)-2-(4-(4-hydroxy-3-isopropylbenzyl)-3-methyl-5-(prop-1-enyl)phenoxy)acetic acid] | ++ (3×<T3-SI≤30×)
CCCc1cc(OCC(=O)O)cc(C)c1Cc1ccc(O)c(C(C)C)c1 [Compound 25, 2-(4-(4-hydroxy-3-isopropylbenzyl)-3-methyl-5-propylphenoxy)acetic acid] | ++ (3×<T3-SI≤30×)
Cc1cc(OCC(=O)O)cc(C2CC2)c1Cc1ccc(O)c(C(C)C)c1 [Compound 27, 2-(3-cyclopropyl-4-(4-hydroxy-3-isopropylbenzyl)-5-methylphenoxy)acetic acid] | ++ (3×<T3-SI≤30×)
C=C(C)c1cc(OCC(=O)O)cc(Cl)c1Cc1ccc(O)c(C(C)C)c1 [Compound 30, 2-(3-chloro-4-(4-hydroxy-3-isopropylbenzyl)-5-(prop-1-en-2-yl)phenoxy)acetic acid] | ++ (3×<T3-SI≤30×)
CC(C)c1cc(Cc2c(Cl)cc(OCC(=O)O)cc2C(C)C)ccc1O [Compound 31, 2-(3-chloro-4-(4-hydroxy-3-isopropylbenzyl)-5-isopropylphenoxy)acetic acid] | ++ (3×<T3-SI≤30×)

same assay, conditions: HEK293-derived reporter cells, 24 hr incubation

Structure (SMILES) | pEC50
Cc1cc(OCC(=O)O)cc(Cl)c1Cc1ccc(O)c(C(C)C)c1 [Compound 2, 2-(3-chloro-4-(4-hydroxy-3-isopropylbenzyl)-5-methylphenoxy)acetic acid] | 6.00 to 7.00
Cc1cc(OCC(=O)O)cc(Br)c1Cc1ccc(O)c(C(C)C)c1 [Compound 5, 2-(3-bromo-4-(4-hydroxy-3-isopropylbenzyl)-5-methylphenoxy)acetic acid] | 7.00 to 8.00
CCc1cc(OCC(=O)O)cc(Cl)c1Cc1ccc(O)c(C(C)C)c1 [Compound 8, 2-(3-chloro-5-ethyl-4-(4-hydroxy-3-isopropylbenzyl)phenoxy)acetic acid] | 7.00 to 8.00
Cc1cc(OCC(=O)O)cc(C(F)(F)F)c1Cc1ccc(O)c(C(C)C)c1 [Compound 11, 2-(4-(4-hydroxy-3-isopropylbenzyl)-3-methyl-5-(trifluoromethyl)phenoxy)acetic acid] | 7.00 to 8.00
CCc1cc(OCC(=O)O)cc(C)c1Cc1ccc(O)c(C(C)C)c1 [Compound 16, 2-(3-ethyl-4-(4-hydroxy-3-isopropylbenzyl)-5-methylphenoxy)acetic acid] | 7.00 to 8.00
CC(C)c1cc(Cc2c(Cl)cc(OCC(=O)O)cc2C(F)(F)F)ccc1O [Compound 18, 2-(3-chloro-4-(4-hydroxy-3-isopropylbenzyl)-5-(trifluoromethyl)phenoxy)acetic acid] | 7.00 to 8.00
C=C(C)c1cc(OCC(=O)O)cc(C)c1Cc1ccc(O)c(C(C)C)c1 [Compound 20, 2-(4-(4-hydroxy-3-isopropylbenzyl)-3-methyl-5-(prop-1-en-2-yl)phenoxy)acetic acid] | 7.00 to 8.00
Cc1cc(OCC(=O)O)cc(C(C)C)c1Cc1ccc(O)c(C(C)C)c1 [Compound 21, 2-(4-(4-hydroxy-3-isopropylbenzyl)-3-isopropyl-5-methylphenoxy)acetic acid] | 7.00 to 8.00
C/C=C/c1cc(OCC(=O)O)cc(C)c1Cc1ccc(O)c(C(C)C)c1 [Compound 23, (E)-2-(4-(4-hydroxy-3-isopropylbenzyl)-3-methyl-5-(prop-1-enyl)phenoxy)acetic acid] | 6.00 to 7.00
CCCc1cc(OCC(=O)O)cc(C)c1Cc1ccc(O)c(C(C)C)c1 [Compound 25, 2-(4-(4-hydroxy-3-isopropylbenzyl)-3-methyl-5-propylphenoxy)acetic acid] | 6.00 to 7.00
Cc1cc(OCC(=O)O)cc(C2CC2)c1Cc1ccc(O)c(C(C)C)c1 [Compound 27, 2-(3-cyclopropyl-4-(4-hydroxy-3-isopropylbenzyl)-5-methylphenoxy)acetic acid] | 6.00 to 7.00
C=C(C)c1cc(OCC(=O)O)cc(Cl)c1Cc1ccc(O)c(C(C)C)c1 [Compound 30, 2-(3-chloro-4-(4-hydroxy-3-isopropylbenzyl)-5-(prop-1-en-2-yl)phenoxy)acetic acid] | 7.00 to 8.00
CC(C)c1cc(Cc2c(Cl)cc(OCC(=O)O)cc2C(C)C)ccc1O [Compound 31, 2-(3-chloro-4-(4-hydroxy-3-isopropylbenzyl)-5-isopropylphenoxy)acetic acid] | > 8.00

same assay, conditions: TR screening

Structure (SMILES) | functional EC50 (TRβ)
Cc1cc(OCC(=O)O)cc(Br)c1Cc1ccc(O)c(C(C)C)c1 [Compound 5, 2-(3-bromo-4-(4-hydroxy-3-isopropylbenzyl)-5-methylphenoxy)acetic acid] | equipotent with the di-bromo analog

system: not listed separately; experiment: Tissue distribution study, brain concentration of parent acid after prodrug dosing; assay type: in vivo, male C57Bl/6 mice; conditions: 1 hr after SC dosing (0.1 mg/kg) of the prodrug; parent acid measured; compared to dichloro-prodrug and Sob-AM2 (FIG. 2)
Method: For tissue concentration studies in male C57Bl/6 mice, test compounds are formulated as NMP/solutol/PBS solution, at a concentration of 0.05 mg/mL and dosed at 2 mL/kg with the targeted dose of 0.100 mg/kg via SC injection or oral dosing. […] Tissue homogenates and plasma concentrations of test compounds are determined using LC-MS/MS with lower limits of quantitation of 0.0200 ng/mL or 0.100 ng/g. The pharmacokinetic parameters are determined by non-compartmental methods using WinNonlin.
FIG. 2 depicts brain levels of Compound 2 recorded 1 hr after SC dosing (0.1 mg/kg) of the corresponding prodrug Compound 3.

Structure (SMILES) | brain concentration of the parent acid
CNC(=O)COc1cc(C)c(Cc2ccc(O)c(C(C)C)c2)c(Cl)c1 [Compound 3, 2-(3-chloro-4-(4-hydroxy-3-isopropylbenzyl)-5-methylphenoxy)-N-methylacetamide] | dramatic increase in brain concentration of the parent acid
